Measured values: patent US7470708B2, “Acidic quinoline derivatives and their use for the prevention and/or treatment of hyperglycaemia-related pathologies” (Merck Patent Gesellschaft mit Beschraenkter Haftung, priority 2003, dated 2008)

Assays:
insulin secretion = assay: Insulin secretion test; type: cell-based; details: concentration of test compound 10^−5 M
Description: According to the method described in Endocrinology, 1992 vol. 130 (1) pp. 167-178
• C corresponds to the concentration of test compound according to the invention INS. SEC. corresponds to the percentage of insulin secretion.

N0STZ rats = assay: Antidiabetic activity in N0STZ rats (non-insulin-dependent diabetes induced by neonatal steptozotocin); type: in vivo; details: N0 STZ rat, oral, percentage change in glycaemia on D4 relative to D0
Experimental: Study of the Antidiabetic Activity in N0STZ Rats
The antidiabetic activity of the compounds of the formula (I) via the oral route, on an experimental model of non-insulin-dependent diabetes induced in rats by means of steptozotocin, was determined as follows.
The model of non-insulin-dependent diabetes is obtained in the rats by means of a neonatal injection (on the day of birth) of steptozotocin.
The diabetic rats used are eight weeks old. The animals are housed, from the day of birth to the day of the experiment, in an animal house at a regulated temperature of 21 to 22° C. and subjected to a fixed cycle of light (from 7 a.m. to 7 p.m.) and darkness (from 7p.m. to 7 a.m.). Their food consisted of a maintenance diet, and water and food were given “ad libitum”, with the exception of fasting two hours before the tests, during which period the food is removed (post-absorptive state).
The rats are treated orally for one (D1) or four (D4) days with the test product. Two hours after the final administration of the product and 30 minutes after anaesthetizing the animals with pentobarbital sodium (Nembutal®), a 300 μl blood sample is taken from the end of the tail.
By way of example, the results obtained are collated in the table below.

SMILES | melting point [°C] | INS. SEC. (percentage of insulin secretion) (insulin secretion) [%] | Percentage decrease in glycaemia at 200 mg/kg (N0STZ rats) [%]
O=C(O)c1cc(OCc2nc3ccccc3s2)c2cc(F)ccc2n1 [Compound 3, 4-(Benzothiazol-2-ylmethoxy)-6-fluoroquinoline-2-carboxylic acid] | > 250 | – | –
COc1ccc2nc(C(=O)[O-])cc(OCc3ccc(Br)cc3F)c2c1.[Na+] [Compound 4, 4-(4-Bromo-2-fluorobenzyloxy)-6-methoxyquinoline-2-carboxylic acid, sodium salt] | > 250 | – | –
COC(=O)c1cc(OCCCCl)c2cc(F)ccc2n1 [Compound 64, methyl 4-(3-chloropropoxy)-6-fluoroquinoline-2-carboxylate] | – | 179 | –
N#Cc1ccccc1-c1ccc(COc2cc(C(=O)O)nc3ccc(F)cc23)cc1 [Compound 7, 4-(2′-Cyanobiphenyl-4-ylmethoxy)-6-fluoroquinoline-2-carboxylic acid] | > 250 | – | –
CCOc1cc(C(=O)O)nc2ccc(F)cc12 [Compound 1, 4-Ethoxy-6-fluoroquinoline-2-carboxylic acid] | 205 | 172 | −27
O=C(O)c1cc(OC/C=C/COc2cc(C(=O)O)nc3ccc(F)cc23)c2cc(F)ccc2n1 [Compound 5, 4-({(E)-4-[(2-Carboxy-6-fluoro-4-quinolinyl)oxy]-2-butenyl}oxy)-6-fluoro-2-quinolinecarboxylic acid] | > 250 | – | −17
O=C(O)c1cc(OCc2ccc(Br)cc2F)c2cc(F)ccc2n1 [Compound 2, 4-(4-Bromo-2-fluorobenzyloxy)-6-fluoroquinoline-2-carboxylic acid] | > 250 | – | –
COc1ccc(C(=O)COc2cc(C(=O)O)nc3ccc(F)cc23)cc1OC [Compound 63, 4-[2-(3,4-dimethoxyphenyl)-2-oxoethoxy]-6-fluoroquinoline-2-carboxylic acid] | – | 192 | –
CC(C)=CCOc1cc(C(=O)O)nc2ccc(F)cc12 [Compound 6, 6-Fluoro-4-(3-methylbut-2-enyloxy)quinoline-2-carboxylic acid] | > 250 | – | −10
COC(=O)c1cc(OCC(C)CCl)c2cc(F)ccc2n1 (centres unmarked) [Compound 65, methyl 4-(3-chloro-2-methylpropoxy)-6-fluoroquinoline-2-carboxylate] | – | 161 | –
